Structures are written as SMILES.

This assay deals with p-IKKa levels in L363 (NIK translocated multiple myeloma) cells. Put plainly: Assay 2: Effect of compounds on p-IKKa levels in L363 (NIK translocated multiple myeloma) cells. The settings on record: Homo sapiens, L-363, 6 h, read-out: Assay 2 IC50 (nM), p-IKKa (Ser 176/180) in BAFF stimulated L363 cells with MG132, 6 h; average if tested more than once. Type of assay: cell-based. In a few lines:
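L363 cells incubated overnight ± 250 ng/ml BAFF, then 6 h at 37 °C with compound (0.3% DMSO) ± 10 μM MG132. Lysates assayed for p-IKKa (Ser176/180) by AlphaLISA SureFire. IC50 from sigmoidal fit of % inhibition normalized to BAFF/MG132-stimulated and unstimulated controls.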

Take `CN1CCn2nc(Nc3nccc(-c4cccc(-c5cc([C@]6(O)CCN(C)C6=O)on5)c4)n3)cc2C1=O` [Example 23, (R)-2-((4-(3-(5-(3-Hydroxy-1-methyl-2-oxopyrrolidin-3-yl)isoxazol-3-yl)phenyl)pyrimidin-2-yl)amino)-5-methyl-6,7-dihydropyrazolo[1,5-a]pyrazin-4(5H)-one]: the IC50 lay in the range of 50 to 500 nM.
As for `Cc1ncccc1Nc1nccc(-c2cccc(-c3cc([C@]4(O)CCN(C)C4=O)on3)c2)n1` [Example 24, (R)-3-Hydroxy-1-methyl-3-(3-(3-(2-((2-methylpyridin-3-yl)amino)pyrimidin-4-yl)phenyl)isoxazol-5-yl)pyrrolidin-2-one], the figure is 50 to 500 nM.
To `CN1CC[C@@](O)(c2cc(-c3cccc(-c4ccnc(Nc5ccn(C)n5)n4)c3)no2)C1=O` [Example 25, (R)-3-Hydroxy-1-methyl-3-(3-(3-(2-((1-methyl-1H-pyrazol-3-yl)amino)pyrimidin-4-yl)phenyl)isoxazol-5-yl)pyrrolidin-2-one] belongs 50 to 500 nM; to `CN1CC[C@@](O)(c2cc(-c3cccc(-c4ccnc(Nc5ccnn5C)n4)n3)no2)C1=O` [Example 26, (R)-3-Hydroxy-1-methyl-3-(3-(6-(2-((1-methyl-1H-pyrazol-5-yl)amino)pyrimidin-4-yl)pyridin-2-yl)isoxazol-5-yl)pyrrolidin-2-one], below 50 nM; to `CN1CC(F)(F)[C@@](O)(c2cc(-c3cccc(-c4ccnc(Nc5ccn(C)n5)n4)n3)no2)C1=O` [Example 27, (R)-4,4-Difluoro-3-hydroxy-1-methyl-3-(3-(6-(2-((1-methyl-1H-pyrazol-3-yl)amino)pyrimidin-4-yl)pyridin-2-yl)isoxazol-5-yl)pyrrolidin-2-one], below 50 nM.
For `CN1CC[C@@](O)(c2cc(-c3cccc(-c4ccnc(Nc5cn(CC(F)F)nc5OC5CC5)n4)n3)no2)C1=O` [Example 28, (R)-3-(3-(6-(2-((3-Cyclopropoxy-1-(2,2-difluoroethyl)-1H-pyrazol-4-yl)amino)pyrimidin-4-yl)pyridin-2-yl)isoxazol-5-yl)-3-hydroxy-1-methylpyrrolidin-2-one], the IC50 was below 50 nM.
`Cc1nn(C)cc1Nc1nccc(-c2cccc(-c3cc([C@]4(O)CCN(C)C4=O)on3)n2)n1` [Example 29, (R)-3-(3-(6-(2-((1,3-Dimethyl-1H-pyrazol-4-yl)amino)pyrimidin-4-yl)pyridin-2-yl)isoxazol-5-yl)-3-hydroxy-1-methylpyrrolidin-2-one]: the IC50 is below 50 nM.
As for `CN1CC[C@@](O)(c2cc(-c3cccc(-c4ccnc(Nc5cnn(C)c5)n4)n3)on2)C1=O` [Example 30, (R)-3-Hydroxy-1-methyl-3-(5-(6-(2-((1-methyl-1H-pyrazol-4-yl)amino)pyrimidin-4-yl)pyridin-2-yl)isoxazol-3-yl)pyrrolidin-2-one], the figure is below 50 nM.
As for `CN1CC[C@@](O)(c2cc(-c3cccc(-c4ccnc(-n5ccc(N)n5)n4)n3)no2)C1=O` [Example 32, (R)-3-(3-(6-(2-(3-Amino-1H-pyrazol-1-yl)pyrimidin-4-yl)pyridin-2-yl)isoxazol-5-yl)-3-hydroxy-1-methylpyrrolidin-2-one], the figure is above 500 nM; as for `CN1CC[C@@](O)(c2cc(-c3cccc(-c4ccnc(Nc5c[nH]nc5C(F)(F)F)n4)n3)no2)C1=O` [Example 33, (R)-3-Hydroxy-1-methyl-3-(3-(6-(2-((3-(trifluoromethyl)-1H-pyrazol-4-yl)amino)pyrimidin-4-yl)pyridin-2-yl)isoxazol-5-yl)pyrrolidin-2-one], above 500 nM.
To `Cc1cn[nH]c1Nc1nccc(-c2cccc(-c3cc([C@]4(O)CCN(C)C4=O)on3)n2)n1` [Example 34, (R)-3-Hydroxy-1-methyl-3-(3-(6-(2-((4-methyl-1H-pyrazol-5-yl)amino)pyrimidin-4-yl)pyridin-2-yl)isoxazol-5-yl)pyrrolidin-2-one] belongs 50 to 500 nM; to `Cc1cnn(-c2nccc(-c3cccc(-c4cc([C@]5(O)CCN(C)C5=O)on4)n3)n2)c1N` [Example 35, (R)-3-(3-(6-(2-(5-Amino-4-methyl-1H-pyrazol-1-yl)pyrimidin-4-yl)pyridin-2-yl)isoxazol-5-yl)-3-hydroxy-1-methylpyrrolidin-2-one], above 500 nM.
In the case of `Cc1n[nH]cc1Nc1nccc(-c2cccc(-c3cc([C@]4(O)CCN(C)C4=O)on3)n2)n1` [Example 36, (R)-3-Hydroxy-1-methyl-3-(3-(6-(2-((3-methyl-1H-pyrazol-4-yl)amino)pyrimidin-4-yl)pyridin-2-yl)isoxazol-5-yl)pyrrolidin-2-one], the IC50 is below 50 nM.
On to `Cc1nn(-c2nccc(-c3cccc(-c4cc([C@]5(O)CCN(C)C5=O)on4)n3)n2)cc1N` [Example 37, (R)-3-(3-(6-(2-(4-Amino-3-methyl-1H-pyrazol-1-yl)pyrimidin-4-yl)pyridin-2-yl)isoxazol-5-yl)-3-hydroxy-1-methylpyrrolidin-2-one], for which the IC50 was above 500 nM.
To `CN1CC[C@@](O)(c2cc(-c3cccc(-c4ccnc(Nc5cnn6cccnc56)n4)n3)no2)C1=O` [Example 38, (R)-3-Hydroxy-1-methyl-3-(3-(6-(2-(pyrazolo[1,5-a]pyrimidin-3-ylamino)pyrimidin-4-yl)pyridin-2-yl)isoxazol-5-yl)pyrrolidin-2-one] belongs below 50 nM; to `CN1CC[C@@](O)(c2cc(-c3cccc(-c4ccnc(-n5cc(N)cn5)n4)n3)no2)C1=O` [Example 39, (R)-3-(3-(6-(2-(4-Amino-1H-pyrazol-1-yl)pyrimidin-4-yl)pyridin-2-yl)isoxazol-5-yl)-3-hydroxy-1-methylpyrrolidin-2-one], above 500 nM.
Regarding `CN1CC[C@@](O)(c2cc(-c3cccc(-c4ccnc(Nc5cn[nH]c5)n4)n3)no2)C1=O` [Example 40, (R)-3-(3-(6-(2-((1H-Pyrazol-4-yl)amino)pyrimidin-4-yl)pyridin-2-yl)isoxazol-5-yl)-3-hydroxy-1-methylpyrrolidin-2-one], the IC50 was below 50 nM.
As to `Cc1nocc1Nc1nccc(-c2cccc(-c3cc([C@]4(O)CCN(C)C4=O)on3)n2)n1` [Example 41, (R)-3-Hydroxy-1-methyl-3-(3-(6-(2-((3-methylisoxazol-4-yl)amino)pyrimidin-4-yl)pyridin-2-yl)isoxazol-5-yl)pyrrolidin-2-one], the IC50 was below 50 nM.
To `CN1CC[C@@](O)(c2cc(-c3cccc(-c4ccnc(Nc5cnn(CC(F)(F)F)c5)n4)n3)no2)C1=O` [Example 42, (R)-3-Hydroxy-1-methyl-3-(3-(6-(2-((1-(2,2,2-trifluoroethyl)-1H-pyrazol-4-yl)amino)pyrimidin-4-yl)pyridin-2-yl)isoxazol-5-yl)pyrrolidin-2-one] belongs below 50 nM; to `CN1CC[C@@](O)(c2cc(-c3cccc(-c4ccnc(NC5(c6cnn(C)c6)CC5)n4)n3)no2)C1=O` [Example 45, (R)-3-Hydroxy-1-methyl-3-(3-(6-(2-((1-(1-methyl-1H-pyrazol-4-yl)cyclopropyl)amino)pyrimidin-4-yl)pyridin-2-yl)isoxazol-5-yl)pyrrolidin-2-one], above 500 nM.
To `CCn1cc(Nc2nccc(-c3cccc(-c4cc([C@]5(O)CCN(C)C5=O)on4)n3)n2)cn1` [Example 46, (R)-3-(3-(6-(2-((1-Ethyl-1H-pyrazol-4-yl)amino)pyrimidin-4-yl)pyridin-2-yl)isoxazol-5-yl)-3-hydroxy-1-methylpyrrolidin-2-one] belongs below 50 nM.
To `CN1CC[C@@](O)(c2cc(-c3cccc(-c4ccnc(Nc5ccn(C)n5)n4)n3)no2)C1=O` [Example 47, (R)-3-Hydroxy-1-methyl-3-(3-(6-(2-((1-methyl-1H-pyrazol-3-yl)amino)pyrimidin-4-yl)pyridin-2-yl)isoxazol-5-yl)pyrrolidin-2-one] belongs below 50 nM.
In the case of `COc1nn(CCO)cc1Nc1nccc(-c2cccc(-c3cc([C@]4(O)CCN(C)C4=O)on3)n2)n1` [Example 48, (R)-3-Hydroxy-3-(3-(6-(2-((1-(2-hydroxyethyl)-3-methoxy-1H-pyrazol-4-yl)amino)pyrimidin-4-yl)pyridin-2-yl)isoxazol-5-yl)-1-methylpyrrolidin-2-one], the IC50 is below 50 nM.
As for `COc1nn(CC(C)(C)O)cc1Nc1nccc(-c2cccc(-c3cc([C@]4(O)CCN(C)C4=O)on3)n2)n1` [Example 49, (R)-3-Hydroxy-3-(3-(6-(2-((1-(2-hydroxy-2-methylpropyl)-3-methoxy-1H-pyrazol-4-yl)amino)pyrimidin-4-yl)pyridin-2-yl)isoxazol-5-yl)-1-methylpyrrolidin-2-one], the figure is below 50 nM; as for `Cc1cn(C2CC(O)C2)nc1Nc1nccc(-c2cccc(-c3cc([C@]4(O)CCN(C)C4=O)on3)n2)n1` (stereo partly drawn) [Example 50, (R)-3-Hydroxy-3-(3-(6-(2-((1-(3-hydroxycyclobutyl)-4-methyl-1H-pyrazol-3-yl)amino)pyrimidin-4-yl)pyridin-2-yl)isoxazol-5-yl)-1-methylpyrrolidin-2-one], below 50 nM; as for `CN1CC[C@@](O)(c2cc(-c3cccc(-c4ccnc(Nc5cnn(C)c5)n4)n3)no2)C1=O` [Example 52, (R)-3-Hydroxy-1-methyl-3-(3-(6-(2-((1-methyl-1H-pyrazol-4-yl)amino)pyrimidin-4-yl)pyridin-2-yl)isoxazol-5-yl)pyrrolidin-2-one], below 50 nM.
As for `CN1CC[C@@](O)(c2cc(-c3cccc(-c4ccnc(Nc5cnn6ccccc56)n4)n3)no2)C1=O` [Example 53, (R)-3-Hydroxy-1-methyl-3-(3-(6-(2-(pyrazolo[1,5-a]pyridin-3-ylamino)pyrimidin-4-yl)pyridin-2-yl)isoxazol-5-yl)pyrrolidin-2-one], the figure is below 50 nM.
To `CN1CC[C@@](O)(c2cc(-c3cccc(-c4ccnc(Nc5cn(C)nc5OCC(F)F)n4)n3)no2)C1=O` [Example 54, (R)-3-(3-(6-(2-((3-(2,2-Difluoroethoxy)-1-methyl-1H-pyrazol-4-yl)amino)pyrimidin-4-yl)pyridin-2-yl)isoxazol-5-yl)-3-hydroxy-1-methylpyrrolidin-2-one] belongs below 50 nM.

The values above are taken from patent US20250282768A1 (Janssen Pharmaceutica NV, priority 2022, published 2025).
